From ChEMBL document CHEMBL1765021, “Assessing high affinity binding to HLA-DQ2.5 by a novel peptide library based approach” (Bioorg Med Chem, 2011)
The source made the active and inactive calls. No cut-off for these calls is given here. Peptide text beside a SMILES is read from it.

Legend:
[1] = species: Homo sapiens; experiment: Binding affinity to MHC class II HLA-DQ2.5 in Epstein-Barr virus-transformed human B lymphocyte
[2] = species: Homo sapiens; experiment: Ratio of IC50 of peptide P198 for human MHC class II HLA-DQ2.5 to IC50 of peptide for human MHC class II HLA-DQ2.5

Row | Activity [1] | Ratio IC50 [2] | Structure (SMILES)
1 | Active | 0.93 | CC(C)C[C@H](NC(=O)[C@H](CCC(=O)O)NC(=O)[C@H](CCC(=O)O)NC(=O)[C@H](CCC(=O)O)NC(=O)[C@H](CCCCN)NC(=O)[C@H](CCC(=O)O)NC(=O)[C@H](C)NC(=O)[C@H](C)NC(=O)[C@@H](N)Cc1ccccc1)C(=O)N[C@@H](CCCNC(=N)N)C(=O)O (H-FAAEKEEELR-OH)
2 | Active |  | CC(C)C[C@H](NC(=O)[C@H](C)NC(=O)[C@H](C)NC(=O)[C@@H](N)Cc1ccccc1)C(=O)N[C@@H](CCCCN)C(=O)N[C@@H](CCC(=O)O)C(=O)N[C@@H](CCC(=O)O)C(=O)N[C@@H](CCC(=O)O)C(=O)N[C@@H](Cc1ccc(O)cc1)C(=O)N[C@@H](CCCNC(=N)N)C(=O)O (H-FAALKEEEYR-OH)
3 | Active |  | CC(C)[C@H](NC(=O)[C@H](CCCCN)NC(=O)[C@H](CCC(=O)O)NC(=O)[C@H](C)NC(=O)[C@H](C)NC(=O)[C@@H](N)Cc1ccccc1)C(=O)N[C@@H](CCC(=O)O)C(=O)N[C@@H](CCC(=O)O)C(=O)N[C@@H](Cc1ccccc1)C(=O)N[C@@H](CCCNC(=N)N)C(=O)O (H-FAAEKVEEFR-OH)
